According to patent publication US20180086749A1, “INHIBITORS OF VIRUSES” (priority 2015, published 2018):
Several values for one entry are separate records, joined by “and”; a condition that tells them apart may be missing. Equal values may be shown once. Read-outs that look alike come from different tables or passages of the source.

What was measured:
WEEV = experiment: cells; type: cell-based, West equine encephalitis virus California
WNV/NY99 [1] = type: cell-based, West Nile virus
HSV-2 = type: cell-based, Herpes simplex virus type-2
CHIKV S27 = type: cell-based, Chikungunya virus
Influenza virus A (H1N1) = type: cell-based
CHIKV (S27 strain) = CHIKV (S27 strain) CPE assay; type: cell-based, Chikungunya virus
JEV [2] = type: cell-based, Japanese Encephalitis virus
ZIKV/MR766 = experiment: Dose-response EC50, ZIKV/MR766; type: cell-based; conditions: Zika virus, Vero 76, Vero76, MOI 0.05
ZIKV/PRVABC59 = experiment: Dose-response EC50, ZIKV/PRVABC59; type: cell-based; conditions: Zika virus, Vero 76, Vero76, MOI 0.05
VEEV TrD = experiment: microbe, parasite or virus in culture; type: cell-based; conditions: Venezuelan equine encephalitis virus
in vitro = conditions: African green monkey, CC50 μM (Vero76)
[3] = system: cellular metabolites of HEK 293T cells; experiment: Metabolomics analysis of cellular metabolites; type: cell-based, human
HIV-1 = HIV-1 viral infectivity assay (TZM-bl); type: cell-based; parameters: reduction in viral infectivity: dose or concentration left out as unconfirmed
JEV [4] = experiment: Dose-response EC50, JEV; type: cell-based; conditions: Japanese encephalitis virus
VEEV TC-83 = type: cell-based, Venezuelan equine encephalitis virus
alphaviruses = type: cell-based; conditions: 5 μM
WNV/NY99 [5] = experiment: Dose-response EC50, WNV; type: cell-based; conditions: West Nile virus
[6] = system: IFN α/β in HEK 293T culture supernatant; type: cell-based, human; conditions: 18 hours
Ebola virus-GFP = experiment: microbe, parasite or virus in culture; type: cell-based, Zaire ebolavirus
YFV 17D = type: cell-based, Yellow Fever virus
VEEV (TC83 strain) = experiment: microbe, parasite or virus in culture; type: cell-based, Venezuelan equine encephalitis virus
pVSV-luc = experiment: microbe, parasite or virus in culture; type: cell-based, Vesicular stomatitis virus; conditions: for EC50: Vesicular stomatitis virus
VEEV V3526-luc = experiment: microbe, parasite or virus in culture; type: cell-based, Venezuelan equine encephalitis virus; conditions: for EC50: Venezuelan equine encephalitis virus
SARS-CoV = type: cell-based, Severe acute respiratory syndrome coronavirus
[7] = system: innate immune response genes in HEK 293T cells; type: cell-based, human
[8] = ML416-treated / DMSO-treated, 18 hours
[9] = ML416 / DMSO, metabolite not confirmed by standard

CN(C(=O)Cc1sccc1F)c1nc2c(s1)CCCC2 [ML416, 2-(3-fluorothiophen-2-yl)-N-methyl-N-(4,5,6,7-tetrahydro-1,3-benzothiazol-2-yl)acetamide]
EC50 (WEEV): 960 nM | Log titer inhibition at 5 μM (WNV/NY99 [1]): −2.05 ± −0.09 Log | Log titer reduction (WNV/NY99 [1]; 5 μM): ~2 Log | Log titer inhibition at 5 μM (HSV-2): 0.01 ± 0.43 Log | reduction of CHIKV viral titer in vitro (CHIKV S27): 4 log | Log titer inhibition at 5 μM (CHIKV S27; 5 μM): −4.024 Log | Log titer inhibition at 5 μM (Influenza virus A (H1N1)): −3.03 Log | Log reduction in progeny virus titers (Influenza virus A (H1N1); 5 μM): greater than 3 Log | EC50 (CHIKV (S27 strain); Chikungunya virus): 290 nM | inhibition of CHIKV-induced cytopathic effect (CHIKV (S27 strain); in words): in the nanomolar range | Log titer inhibition at 5 μM (JEV [2]): −1.3 ± −0.43 Log | Log reduction (JEV [2]; 5 μM): ~1.3 Log | EC50 (ZIKV/MR766): 1100 nM | EC50 (ZIKV/PRVABC59): 2200 nM | EC50 (VEEV TrD): 460 nM | CC50 (in vitro): > 50 µM | Fold Change: 3-((carboxymethyl)(methyl)amino)-3-oxopropanoic acid [3, 8]: 0.46 fold | Fold Change: Citirc acid [3, 8]: 0.62 fold | Fold Change: D-(−)-Lactic acid [3, 8]: 0.76 fold | Fold Change: DL-Ornithine [3, 8]: 0.53 fold | Fold Change: DL-Phenylalanine [3, 8]: 0.71 fold | Fold Change: Fumaric Acid [3, 8]: 11 fold and 11.00 fold | Fold Change: Glycine [3, 8]: 2.80 fold | Fold Change: L-Asparagine [3, 8]: 0.41 fold | Fold Change: L-Aspartic acid [3, 8]: 2.07 fold | Fold Change: L-Glutamic acid [3, 8]: 0.09 fold | Fold Change: L-Isoleucine [3, 8]: 0.45 fold | Fold Change: L-Lysine [3, 8]: 2.76 fold | Fold Change: L-Proline [3, 8]: 0.28 fold | Fold Change: L-Threonine [3, 8]: 0.54 fold | Fold Change: L-Tyrosine [3, 8]: 0.86 fold | Fold Change: Lauric acid; Dodecanoic acid [3, 8]: 0.73 fold | Fold Change: Oxalic acid [3, 8]: 0.66 fold | Fold Change: Phenylalanine [3, 8]: 0.40 fold | Fold Change: Pyruvic acid [3, 8]: 1.60 fold | Fold Change: Tryptophan [3, 8]: 1.23 fold | presence of free uridine ([3]; ML416-treated groups): not detected | Fold Change: 1-phenylpropan-2-amine; Amphetamine; Fenopromin* [3, 9]: 0.80 fold | Fold Change: 2-(Dimethylamino)ethyl neopentyl carbonate* [3, 9]: 1.49 fold | Fold Change: 3,3-diethoxy-2-hydroxypropyl dihydrogen phosphate* [3, 9]: 0.58 fold | Fold Change: 3-Glycerophosphate* [3, 9]: 1.71 fold | Fold Change: 3-hydroxy-2-methylpropanoic acid; 3-Hydroxyisobutyric acid* [3, 9]: 0.70 fold | Fold Change: Adenine* [3, 9]: 1.37 fold | Fold Change: Dihydromuconic acid; trans-3-Hexenedioic acid* [3, 9]: 0.23 fold | Fold Change: Ethylcholine mustard* [3, 9]: 0.49 fold | Fold Change: L-Norvaline* [3, 9]: 0.52 fold | Fold Change: Niacinamine* [3, 9]: 0.74 fold | Fold Change: O-phosphorylethanolamine; 2-aminoethyl dihydrogen phosphate* [3, 9]: 1.35 fold | Fold Change: Ribitol* [3, 9]: 0.66 fold | Fold Change: Scyllo-Inositol* [3, 9]: 1.23 fold | Fold Change: meso-Erythritol; Erythritol* [3, 9]: 0.69 fold | presence of dihydroorotic acid (DHO) ([3]; ML416 vs mock-treated): found only in ML416-treated groups | presence of orotic acid ([3]; ML416 vs mock-treated): found only in ML416-treated groups | inhibition at 10 µM (HIV-1; Human immunodeficiency virus 1, TZM-bl, read-out: inhibition at 10 μM): 94% | reduction in viral infectivity (HIV-1; TZM-bl reporter system, luciferase): 94% | EC50 (JEV [4]): 1900 nM | EC50 (JEV [4]; Vero 76, JEV, Vero76, MOI 0.05, Table 3, read-out: EC50): 1900 nM | Log titer inhibition at 5 μM (VEEV TC-83): −2.536 ± 0.018 Log | Log reduction in progeny virus titers (alphaviruses): greater than 4 Log | EC50 (WNV/NY99 [5]; Table 2): 2400 nM | EC50 (WNV/NY99 [5]; Vero 76, Vero76, MOI 0.01, Table 3): 2400 nM | IFN α/β in cell culture supernatant [6]: no measurable quantity of IFNs was detected | EC50 (Ebola virus-GFP): 260 nM | EC50 (Ebola virus-GFP; Zaire ebolavirus, HeLa): 300 nM | Log titer inhibition at 5 μM (YFV 17D): −2.32 Log | Log titer reduction (YFV 17D; 5 μM): ~2 Log | EC50 (VEEV (TC83 strain); Venezuelan equine encephalitis virus): 350 nM | EC50 (VEEV (TC83 strain); read-out: VEEV (TC83 strain) CPE Assay Potency mean EC50): 1000 nM and 900 nM | antiviral effect (pVSV-luc): moderate effect | EC50 (pVSV-luc): 190 nM | EC50 (pVSV-luc; BHK, read-out: EC50 pVSV-Gp): 8260 nM | EC50 (pVSV-luc; HEK-293T, read-out: EC50 pVSV-Gp): 170 nM | EC50 (pVSV-luc; N2a, read-out: EC50 pVSV-Gp): > 50000 nM | EC50 (pVSV-luc; NIH3T3, read-out: EC50 pVSV-Gp): > 50000 nM | EC50 (pVSV-luc; in Mus musculus): > 50000 nM | EC50 (pVSV-luc; read-out: EC50 pVSV-Gp): 3820 nM | EC50 (pVSV-luc; read-out: EC50 values range): 150 to 680 nM | antiviral effect (VEEV V3526-luc): moderate effect | effect of DHO addition on antiviral activity (VEEV V3526-luc): did not affect the antiviral activity | EC50 (VEEV V3526-luc): 170 nM | EC50 (VEEV V3526-luc; BHK, read-out: EC50 V3526-luc): 1120 nM | EC50 (VEEV V3526-luc; HEK-293T, read-out: EC50 V3526-luc): 150 nM | EC50 (VEEV V3526-luc; N2a, read-out: EC50 V3526-luc): > 50000 nM | EC50 (VEEV V3526-luc; NIH3T3, read-out: EC50 V3526-luc): > 50000 nM | EC50 (VEEV V3526-luc; Vero 76, read-out: EC50 V3526-luc): 170 nM | EC50 (VEEV V3526-luc; in Mus musculus): > 50000 nM | EC50 (VEEV V3526-luc; read-out: EC50 V3526-luc): 490 nM | EC50 (VEEV V3526-luc; read-out: EC50 values range): 150 to 680 nM | CC50 (Vero 76 cells): > 50000 nM | Selective Index 50 (SI50) (Vero 76 cells): 106.9 | concentration up to which no apparent cytotoxicity (Vero 76 cells; African green monkey): up to 12.5 μM | cytotoxicity (Vero 76 cells; African green monkey): > 40 µM | cytotoxicity in Vero 76 cells (Vero 76 cells; African green monkey): > 50 µM | antiviral activity (blank spaces of Table 2) (SARS-CoV): initial results have shown activity | IFIH1 expression [7]: repressed | IFIT1 gene upregulation [7]: more than 10 fold | IFNB1 expression [7]: repressed | IRF7 gene upregulation [7]: more than 10 fold | MYD88 expression [7]: did not show any changes | OAS1 expression [7]: did not show any changes | OAS2 gene upregulation [7]: more than 10 fold | RIG-I gene upregulation [7]: more than 10 fold
